Among the test systems are EKVX NSCLC; HL-60(TB) leukemia; MDA-MB-435; NCI-H460 lung; RXF 393 renal; SK-OV-3 ovarian; UACC-62 melanoma; UO-31 renal; A498 renal.
Common to all, as to assay: inhibition of tumour cell growth, NCI panel, 48 h

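Each compound was tested at five concentrations against cells in 96-well plates for 48 hours. Here, GI50 denotes the concentration required for 50% inhibition of growth. At the TGI there is no net growth.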

The values below come from PubChem BioAssay (NCI).

Turning to `CCOC(=O)C(Cc1c[nH]c2ccc(N)cc12)(NC(C)=O)C(=O)OCC`, the GI50 in the assay on EKVX NSCLC is > 1000 µM; in the assay with HL-60(TB) leukemia, 758000 nM; with MDA-MB-435, > 1000 µM; in the assay on NCI-H460 lung, > 1000 µM; with RXF 393 renal, > 1000 µM; with SK-OV-3 ovarian, > 1000 µM. The GI50 in the assay on UACC-62 melanoma and in the assay with UO-31 renal was > 1000 µM each time. For the same compound, the TGI with EKVX NSCLC, with HL-60(TB) leukemia, with MDA-MB-435, in the assay on NCI-H460 lung, in the assay on RXF 393 renal and in the assay on SK-OV-3 ovarian was > 1000 µM throughout. Besides, the TGI with UACC-62 melanoma and in the assay on UO-31 renal was > 1000 µM in each case.

For `COc1cc(OC)cc(C2CC(=O)Nc3c2c(C)nn3-c2nc3ccccc3[nH]2)c1` (stereo not drawn), the GI50 with A498 renal is 2.11 µM; in the assay with EKVX NSCLC it was 3.31 µM; with HL-60(TB) leukemia, 2340 nM; in the assay on MDA-MB-435 it was 2.76 µM; in the assay with NCI-H460 lung, 2.58 µM; with RXF 393 renal, 3.21 µM. Besides, the GI50 was 2.41 µM in the assay with SK-OV-3 ovarian, 1.94 µM in the assay on UACC-62 melanoma and 3.22 µM in the assay with UO-31 renal. Further, the TGI in the assay on A498 renal was 4.69 µM; in the assay with EKVX NSCLC, > 100 µM; in the assay with HL-60(TB) leukemia, 7.37 µM; in the assay on MDA-MB-435 it was 7.88 µM; with NCI-H460 lung, 6.1 µM; in the assay on RXF 393 renal, 24.6 µM. In addition, the TGI came to 5.49 µM in the assay on SK-OV-3 ovarian, 4.01 µM in the assay on UACC-62 melanoma and 11.4 µM in the assay on UO-31 renal.

As for `CN(C)C=Nc1cccc2nsnc12`, the TGI in the assay with A498 renal, in the assay on EKVX NSCLC, in the assay on HL-60(TB) leukemia, in the assay with MDA-MB-435, with RXF 393 renal and in the assay on SK-OV-3 ovarian was > 100 µM each time. The TGI with UACC-62 melanoma and in the assay on UO-31 renal was > 100 µM each time.

`O=C1c2ccccc2-c2c1c1ccccc1c(=O)n2CCCNCCCn1ccnc1`: the GI50 is 2.05 µM in the assay on A498 renal; 4.75 µM in the assay on EKVX NSCLC; 653 nM with HL-60(TB) leukemia; 1.72 µM in the assay on MDA-MB-435; 1.27 µM with NCI-H460 lung; 1.48 µM with RXF 393 renal. Besides, the values for the GI50 with SK-OV-3 ovarian, with UACC-62 melanoma and in the assay with UO-31 renal were 3.16 µM, 1.72 µM and 1.23 µM, respectively. Moreover, the TGI with A498 renal stood at 7.83 µM; with EKVX NSCLC, 12.2 µM; in the assay with HL-60(TB) leukemia, 5.01 µM; with MDA-MB-435, 5.51 µM; in the assay on NCI-H460 lung, 43.1 µM; in the assay on RXF 393 renal it was 4.31 µM. The TGI with SK-OV-3 ovarian is 17.7 µM; with UACC-62 melanoma it was 5.95 µM; in the assay on UO-31 renal, > 100 µM.

As to `Cc1cc(C)c([O-])c(CN(C)CCN(C)Cc2cc(C)cc(C)c2[O-])c1.O=C([O-])c1cccc(C(=O)[O-])n1.[Ti+4]`, the GI50 in the assay with A498 renal was 3.72 µM; in the assay with EKVX NSCLC, 3.4 µM; in the assay with HL-60(TB) leukemia, 1690 nM; in the assay with MDA-MB-435 it was 2.89 µM; with NCI-H460 lung, 2.01 µM; in the assay on RXF 393 renal, 1.42 µM. Also, the results for the GI50 with SK-OV-3 ovarian and in the assay with UO-31 renal were 3.54 µM and 2.26 µM, respectively. Also, the TGI is > 100 µM with A498 renal; > 100 µM in the assay on EKVX NSCLC; 5.56 µM in the assay on HL-60(TB) leukemia; > 100 µM with MDA-MB-435; > 100 µM in the assay on NCI-H460 lung; 3.96 µM with RXF 393 renal. Moreover, the TGI in the assay on SK-OV-3 ovarian and in the assay on UO-31 renal was > 100 µM each time.

Regarding `CC(=O)[O-].CC(=O)[O-].[Pt+2].c1cscn1.c1cscn1`, the GI50 with A498 renal is > 100 µM; in the assay with HL-60(TB) leukemia, 36400 nM; with MDA-MB-435, > 100 µM; in the assay with NCI-H460 lung, > 100 µM; in the assay on RXF 393 renal, > 100 µM; in the assay with SK-OV-3 ovarian it was > 100 µM. The GI50 in the assay on UACC-62 melanoma and with UO-31 renal was > 100 µM each time. For the same compound, the TGI with A498 renal, in the assay on HL-60(TB) leukemia, with MDA-MB-435, in the assay on NCI-H460 lung, in the assay with RXF 393 renal and with SK-OV-3 ovarian was > 100 µM throughout. The TGI in the assay with UACC-62 melanoma and with UO-31 renal was > 100 µM in each case.

Take `O=c1c2c(nc3n1CCS3)[nH]c1ccccc12`: the GI50 in the assay on A498 renal was 89.5 µM; in the assay with EKVX NSCLC, > 100 µM; in the assay with MDA-MB-435 it was > 100 µM; with NCI-H460 lung it was > 100 µM; in the assay on RXF 393 renal, 58.6 µM; with SK-OV-3 ovarian, > 100 µM. The figures for the GI50 with UACC-62 melanoma and in the assay with UO-31 renal were 62.4 µM and 94.3 µM, respectively. The TGI with A498 renal, in the assay with EKVX NSCLC, in the assay on MDA-MB-435, with NCI-H460 lung, in the assay on RXF 393 renal and with SK-OV-3 ovarian was > 100 µM in each case. Further, the TGI in the assay on UACC-62 melanoma and in the assay with UO-31 renal was > 100 µM in each case.
